Values after ≈ are worked out from the molar mass of the structure shown.
Columns and labels:
[1] = Solubility in water of the dye compound; type: physicochemical
[2] = Maximum absorption wavelength in water (λmax); type: physicochemical

Compound	solubility [1] [mg/mL]	maximum absorption wavelength in water (λmax) [2] [nm]
COc1ccc(N=Nc2c(S(=O)(=O)O)cc3cc(N=Nc4c(S(=O)(=O)O)cc5cc(S(=O)(=O)O)c(N=Nc6ccc7cc(S(=O)(=O)O)c(N=Nc8ccccc8S(=O)(=O)O)c(O)c7c6)c(N)c5c4O)ccc3c2O)c(S(=O)(=O)O)c1 [No. 2-3]	≥ 100	650
COc1ccc(N=Nc2c(S(=O)(=O)O)cc3cc(N=Nc4c(S(=O)(=O)O)cc5cc(S(=O)(=O)O)c(N=Nc6ccc7cc(S(=O)(=O)O)c(N=Nc8ccc([N+](=O)[O-])cc8S(=O)(=O)O)c(O)c7c6)c(N)c5c4O)ccc3c2O)c(S(=O)(=O)O)c1 [No. 2-5]	≥ 100	652
COc1ccc(N=Nc2c(S(=O)(=O)O)cc3c(S(=O)(=O)O)c(N=Nc4c(S(=O)(=O)O)cc5cc(S(=O)(=O)O)c(N=Nc6ccc7c(O)c(N=Nc8ccc(OC)cc8S(=O)(=O)O)c(S(=O)(=O)O)cc7c6S(=O)(=O)O)c(O)c5c4N)ccc3c2O)c(S(=O)(=O)O)c1 [No. 2-4]	≥ 100	559
COc1ccc(N=Nc2c(S(=O)(=O)O)cc3cc(N=Nc4c(S(=O)(=O)O)cc5cc(S(=O)(=O)O)c(N=Nc6ccc7cc(S(=O)(=O)O)c(N=Nc8ccc(OC)cc8S(=O)(=O)O)c(O)c7c6)c(N)c5c4O)ccc3c2O)c(S(=O)(=O)O)c1 [No. 2-1]	~100 (≈ 80.1 mM)	647

Results, then the compound that gave them:

solubility [1] [mg/mL]	maximum absorption wavelength in water (λmax) [2] [nm]	Compound
≥ 100	657	COc1ccc(N=Nc2c(S(=O)(=O)O)cc3cc(N=Nc4c(S(=O)(=O)O)cc5cc(S(=O)(=O)O)c(N=Nc6cc7c(O)c(N=Nc8ccc(OC)cc8S(=O)(=O)O)c(S(=O)(=O)O)cc7cc6S(=O)(=O)O)c(N)c5c4O)ccc3c2O)c(S(=O)(=O)O)c1 [No. 2-2]
~100 (≈ 77 mM)	645	COc1ccc(N=Nc2c(S(=O)(=O)O)cc3c(S(=O)(=O)O)c(N=Nc4c(S(=O)(=O)O)cc5cc(S(=O)(=O)O)c(N=Nc6ccc7c(O)c(N=Nc8ccccc8S(=O)(=O)O)c(S(=O)(=O)O)cc7c6)c(O)c5c4N)ccc3c2O)c(S(=O)(=O)O)c1 [No. 2-28]
≥ 100	660	Nc1c(N=Nc2ccc3cc(S(=O)(=O)O)c(N=Nc4ccccc4S(=O)(=O)O)c(O)c3c2)c(S(=O)(=O)O)cc2cc(S(=O)(=O)O)c(N=Nc3ccc4cc(S(=O)(=O)O)c(N=Nc5ccccc5S(=O)(=O)O)c(O)c4c3)c(O)c12 [No. 2-11]
≥ 100	646	COc1ccc(N=Nc2c(S(=O)(=O)O)cc3cc(N=Nc4c(S(=O)(=O)O)cc5cc(S(=O)(=O)O)c(N=Nc6ccc7cc(S(=O)(=O)O)c(N=Nc8cc(S(=O)(=O)O)ccc8S(=O)(=O)O)c(O)c7c6)c(N)c5c4O)ccc3c2O)c(S(=O)(=O)O)c1 [No. 2-29]

From patent publication US7462228B2, “Water-base black ink composition and colored product” (Nippon Kayaku Kabushiki Kaisha, priority 2003, dated 2008)
